{"source": "paper PMC4160273", "about": "(Journal of the American Chemical Society, 2014)", "key": {"[1]": {"details": "thiol, cited from earlier work"}, "[2]": {"molecular_target": "RSK2 CTD (Mus musculus, UniProt P18654)", "details": "after 4 hours, guanidine"}, "[3]": {"test_system": "endogenous RSK1 and RSK2", "test": "RSK1/2 occupancy in MDA-MB-231 cells by competitive labeling with BODIPY-FMK", "format": "cell-based", "details": "0.1 and 1.0 μM, 2 h"}}, "note": "Like-named read-outs stand apart in the source and are kept apart here.", "data": [{"smiles": "OCCS", "note": "[BME, β-mercaptoethanol]", "values": [{"measurement": "pKa", "setting": "[1]; ref [34]", "value": 9.6}]}, {"smiles": "COc1cc(-c2n[nH]c3ccc(C=C(C#N)n4cccn4)cc23)cc(OC)c1OC", "note": "[S3]", "values": [{"measurement": "% dissociation / recovered from RSK2 after unfolding", "setting": "[2]", "value": "~ 2%"}]}, {"smiles": "Cc1ccc(-c2c(C=C(C#N)c3ccncc3)n(CCCO)c3ncnc(N)c23)cc1", "note": "[compound 17]", "values": [{"measurement": "Labeling of RSK1/2 by BODIPY-FMK in pretreated cells", "setting": "[3]", "value": "less effective"}]}, {"smiles": "NCCS", "note": "[cysteamine]", "values": [{"measurement": "pKa", "setting": "[1]; ref [36]", "value": 8.4}]}]}
